pIC50: −log10 of the molar value. Activity calls are given as the source filed them. The calls are words filed in the database; no cut-off is given here.
Columns and labels:
[1] = system: Bcap37; experiment: Growth inhibition of human Bcap37 cells at 10 uM after 72 hrs by MTT assay; type: functional; details: Bcap37, 72 h, read-out: GI
[2] = system: MGC-803; experiment: Growth inhibition of human MGC803 cells at 10 uM after 72 hrs by MTT assay; type: functional; details: MGC-803, 72 h, read-out: GI
[3] = Growth inhibition of mouse NIH/3T3 cells at 10 uM after 72 hrs by MTT assay; type: cell-based, NIH3T3; details: read-out: GI
[4] = system: MGC-803; experiment: Antiproliferative activity against human MGC803 cells after 72 hrs by MTT assay; type: functional, cell-based; details: MGC-803, 72 h
[5] = system: Bcap37; experiment: Antiproliferative activity against human Bcap37 cells after 72 hrs by MTT assay; type: functional, cell-based; details: Bcap37, 72 h
[6] = system: MGC-803; experiment: Induction of apoptosis in human MGC803 cells at 10 uM after 48 hrs by acridine orange/ethidium bromide staining; type: functional, cell-based
[7] = system: MGC-803; experiment: Induction of apoptosis in human MGC803 cells assessed as condensed chromatin at 10 uM after 48 hrs by Hoechst 33258 staining; type: functional, cell-based
[8] = system: MGC-803; experiment: Induction of apoptosis in human MGC803 cells assessed as early and late apoptotic level at 10 uM after 12 hrs by annexinV/FITC-PI staining-based flow cytometric analysis; type: functional
[9] = system: MGC-803; experiment: Induction of apoptosis in human MGC803 cells assessed as early and late apoptotic level at 10 uM after 24 hrs by annexinV/FITC-PI staining-based flow cytometric analysis; type: functional
[10] = system: MGC-803; experiment: Induction of apoptosis in human MGC803 cells assessed as DNA fragmentation at 10 uM after 24 hrs by TUNEL assay; type: functional, cell-based
[11] = system: MGC-803; experiment: Induction of apoptosis in human MGC803 cells assessed as early and late apoptotic level at 10 uM after 36 hrs by annexinV/FITC-PI staining-based flow cytometric analysis; type: functional

Row | SMILES | inhibition of growth at 10 µM [1] [%] | inhibition of growth at 10 µM [2] [%] | inhibition at 72 h, 10 µM [3] [%] | pIC50 [4] | pIC50 ([5]; read-out: IC50) | Activity [6] | Activity [7] | Activity [8] [%] | Activity [9] [%] | Activity [10] | Activity [11] [%] | pIC50 [5]
1 | C[C@H]1[C@H](C)CC[C@]2(C(=O)OCCN3CCN(C(=O)c4cc(Cl)ccc4[N+](=O)[O-])CC3)CC[C@]3(C)C(=CC[C@@H]4[C@@]5(C)CC[C@H](O)C(C)(C)[C@@H]5CC[C@]43C)[C@H]12 | 33.2 | 57.3 | 77.7 | 5.03 | – | – | – | – | – | – | – | –
2 | C[C@H]1[C@H](C)CC[C@]2(C(=O)OCCN3CCN(C(=O)c4ccc(F)cc4F)CC3)CC[C@]3(C)C(=CC[C@@H]4[C@@]5(C)CC[C@H](O)C(C)(C)[C@@H]5CC[C@]43C)[C@H]12 | 60.5 | 32.1 | 18.1 | 4.90 | 5.08 | – | – | – | – | – | – | –
3 | C[C@H]1[C@H](C)CC[C@]2(C(=O)OCCN3CCN(C(=O)c4cccc(F)c4)CC3)CC[C@]3(C)C(=CC[C@@H]4[C@@]5(C)CC[C@H](O)C(C)(C)[C@@H]5CC[C@]43C)[C@H]12 | 32.1 | 45.3 | 33.5 | < 4.70 | – | – | – | – | – | – | – | –
4 | C[C@H]1[C@H](C)CC[C@]2(C(=O)OCCN3CCN(C(=O)c4ccnc(Cl)c4)CC3)CC[C@]3(C)C(=CC[C@@H]4[C@@]5(C)CC[C@H](O)C(C)(C)[C@@H]5CC[C@]43C)[C@H]12 | 19 | 24.1 | 44.3 | – | – | – | – | – | – | – | – | –
5 | CC[C@@]1(O)C(=O)OCc2c1cc1n(c2=O)Cc2cc3cc(O)ccc3nc2-1 [HYDROXYCAMPTOTHECIN] | 28.1 | 29.1 | 9.3 | < 4.70 | < 4.70 | Active | Active | 17.37 | 18.66 | Active | 24.95 | –
6 | C[C@H]1[C@H](C)CC[C@]2(C(=O)OCCN3CCN(C(=O)c4ccccc4)CC3)CC[C@]3(C)C(=CC[C@@H]4[C@@]5(C)CC[C@H](O)C(C)(C)[C@@H]5CC[C@]43C)[C@H]12 | 23.9 | 21.4 | 19.1 | – | – | – | – | – | – | – | – | –
7 | C[C@H]1[C@H](C)CC[C@]2(C(=O)OCCN3CCN(C(=O)c4ccccc4Cl)CC3)CC[C@]3(C)C(=CC[C@@H]4[C@@]5(C)CC[C@H](O)C(C)(C)[C@@H]5CC[C@]43C)[C@H]12 | 69.1 | 93 | 29.8 | 5.33 | 5.14 | – | – | – | – | – | – | –
8 | C[C@H]1[C@H](C)CC[C@]2(C(=O)OCCN3CCN(C(=O)c4cc([N+](=O)[O-])cc([N+](=O)[O-])c4)CC3)CC[C@]3(C)C(=CC[C@@H]4[C@@]5(C)CC[C@H](O)C(C)(C)[C@@H]5CC[C@]43C)[C@H]12 | 10.7 | 24.7 | 37.2 | – | – | – | – | – | – | – | – | –
9 | C[C@H]1[C@H](C)CC[C@]2(C(=O)OCCN3CCN(C(=O)c4ccc(F)cc4)CC3)CC[C@]3(C)C(=CC[C@@H]4[C@@]5(C)CC[C@H](O)C(C)(C)[C@@H]5CC[C@]43C)[C@H]12 | 83.7 | 71.8 | 71.3 | 5.14 | 5.29 | – | – | – | – | – | – | –
10 | C[C@H]1[C@H](C)CC[C@]2(C(=O)OCCN3CCNCC3)CC[C@]3(C)C(=CC[C@@H]4[C@@]5(C)CC[C@H](O)C(C)(C)[C@@H]5CC[C@]43C)[C@H]12 | 84.4 | 86.6 | 60.1 | 5.14 | 5.12 | – | – | – | – | – | – | –
11 | Cc1ccccc1C(=O)N1CCN(CCOC(=O)[C@]23CC[C@@H](C)[C@H](C)[C@H]2C2=CC[C@@H]4[C@@]5(C)CC[C@H](O)C(C)(C)[C@@H]5CC[C@@]4(C)[C@]2(C)CC3)CC1 | 94.8 | 98.9 | 60.3 | 5.44 | 5.27 | – | – | – | – | – | – | –
12 | COc1ccc(C(=O)N2CCN(CCOC(=O)[C@]34CC[C@@H](C)[C@H](C)[C@H]3C3=CC[C@@H]5[C@@]6(C)CC[C@H](O)C(C)(C)[C@@H]6CC[C@@]5(C)[C@]3(C)CC4)CC2)cc1OC | 51.8 | 24.5 | 73.1 | – | 4.95 | – | – | – | – | – | – | –
13 | CCCCCCCCC(=O)N1CCN(CCOC(=O)[C@]23CC[C@@H](C)[C@H](C)[C@H]2C2=CC[C@@H]4[C@@]5(C)CC[C@H](O)C(C)(C)[C@@H]5CC[C@@]4(C)[C@]2(C)CC3)CC1 | 12.5 | 44.2 | 12 | < 4.70 | – | – | – | – | – | – | – | –
14 | C[C@H]1[C@H](C)CC[C@]2(C(=O)OCCN3CCN(C(=O)c4ccc([N+](=O)[O-])cc4)CC3)CC[C@]3(C)C(=CC[C@@H]4[C@@]5(C)CC[C@H](O)C(C)(C)[C@@H]5CC[C@]43C)[C@H]12 | 19.1 | 24.3 | 65.4 | – | – | – | – | – | – | – | – | –
15 | C[C@H]1[C@H](C)CC[C@]2(C(=O)OCCN3CCN(C(=O)c4c(F)cccc4Cl)CC3)CC[C@]3(C)C(=CC[C@@H]4[C@@]5(C)CC[C@H](O)C(C)(C)[C@@H]5CC[C@]43C)[C@H]12 | 85.3 | 92.1 | 24.4 | 5.38 | 5.36 | – | – | – | – | – | – | –
16 | C[C@H]1[C@H](C)CC[C@]2(C(=O)OCCN3CCN(C(=O)c4cccnc4Cl)CC3)CC[C@]3(C)C(=CC[C@@H]4[C@@]5(C)CC[C@H](O)C(C)(C)[C@@H]5CC[C@]43C)[C@H]12 | 29 | 34.3 | 4.3 | 4.85 | – | – | – | – | – | – | – | –
17 | C[C@H]1[C@H](C)CC[C@]2(C(=O)OCCN3CCN(C(=O)c4ccccc4C(F)(F)F)CC3)CC[C@]3(C)C(=CC[C@@H]4[C@@]5(C)CC[C@H](O)C(C)(C)[C@@H]5CC[C@]43C)[C@H]12 | 38.6 | 71.2 | 16.2 | 5.06 | 4.96 | – | – | – | – | – | – | –
18 | C[C@H]1[C@H](C)CC[C@]2(C(=O)OCCN3CCN(C(=O)Cc4ccc(Cl)cc4)CC3)CC[C@]3(C)C(=CC[C@@H]4[C@@]5(C)CC[C@H](O)C(C)(C)[C@@H]5CC[C@]43C)[C@H]12 | 52 | 68.6 | 2.9 | 5.07 | 5.00 | – | – | – | – | – | – | –
19 | C=C/C=C/CC(=O)N1CCN(CCOC(=O)[C@]23CC[C@@H](C)[C@H](C)[C@H]2C2=CC[C@@H]4[C@@]5(C)CC[C@H](O)C(C)(C)[C@@H]5CC[C@@]4(C)[C@]2(C)CC3)CC1 | 14.7 | 23.4 | 35 | – | – | – | – | – | – | – | – | –
20 | CCCCC(CC)C(=O)N1CCN(CCOC(=O)[C@]23CC[C@@H](C)[C@H](C)[C@H]2C2=CC[C@@H]4[C@@]5(C)CC[C@H](O)C(C)(C)[C@@H]5CC[C@@]4(C)[C@]2(C)CC3)CC1 (some centres not stated) | 68.6 | 80.8 | 54.5 | 5.16 | 5.38 | – | – | – | – | – | – | –
21 | COc1cccc2c1C(=O)c1c(O)c3c(c(O)c1C2=O)C[C@@](O)(C(=O)CO)C[C@@H]3O[C@H]1C[C@H](N)[C@H](O)[C@H](C)O1 [DOXORUBICIN] | 92.1 | 92.1 | 99.2 | 6.15 | – | – | – | – | – | – | – | 5.89
22 | C[C@H]1[C@H](C)CC[C@]2(C(=O)OCCN3CCN(C(=O)c4ccncc4)CC3)CC[C@]3(C)C(=CC[C@@H]4[C@@]5(C)CC[C@H](O)C(C)(C)[C@@H]5CC[C@]43C)[C@H]12 | 8.3 | 32.1 | 55.4 | 4.88 | – | – | – | – | – | – | – | –
23 | CC(C)c1ccc(C(=O)N2CCN(CCOC(=O)[C@]34CC[C@@H](C)[C@H](C)[C@H]3C3=CC[C@@H]5[C@@]6(C)CC[C@H](O)C(C)(C)[C@@H]6CC[C@@]5(C)[C@]3(C)CC4)CC2)cc1 | 45.5 | 72.3 | 5.5 | 5.30 | 4.93 | – | – | – | – | – | – | –
24 | C[C@H]1[C@H](C)CC[C@]2(C(=O)OCCBr)CC[C@]3(C)C(=CC[C@@H]4[C@@]5(C)CC[C@H](O)C(C)(C)[C@@H]5CC[C@]43C)[C@H]12 | 23.1 | 39.4 | 11 | 4.91 | – | – | – | – | – | – | – | –
25 | C[C@H]1[C@H](C)CC[C@]2(C(=O)OCCN3CCN(C(=O)c4cccnc4)CC3)CC[C@]3(C)C(=CC[C@@H]4[C@@]5(C)CC[C@H](O)C(C)(C)[C@@H]5CC[C@]43C)[C@H]12 | 24.5 | 22 | 52.3 | – | – | – | – | – | – | – | – | –
26 | C[C@H]1[C@H](C)CC[C@]2(C(=O)OCCN3CCN(C(=O)/C=C/c4ccccc4)CC3)CC[C@]3(C)C(=CC[C@@H]4[C@@]5(C)CC[C@H](O)C(C)(C)[C@@H]5CC[C@]43C)[C@H]12 | 54.4 | 51.1 | 39 | 4.90 | 5.04 | – | – | – | – | – | – | –

Source: ChEMBL document CHEMBL2150939, “Synthesis and cytotoxicity of novel ursolic acid derivatives containing an acyl piperazine moiety” (Eur J Med Chem, 2012)
